Experimental data taken from article PMC9736855, “Discovery of 3-Amino-1H-pyrazole-Based Kinase Inhibitors to Illuminate the Understudied PCTAIRE Family” (International Journal of Molecular Sciences, 2022).

Tests used:
[1] = target: T1, CDK16 (Homo sapiens, UniProt Q00536); assay: DSF; type: binding; settings: 10 μM compound
T1 construct: purchased in-house DSF panel (SGC Frankfurt)
From the text: (§1) To investigate the selectivity profile of the different series, a differential scanning fluorimetry (DSF) assay was used. This assay offers a rapid and sensitive screening method that determines the denaturation temperature of a protein in absence and presence of a compound. This assay format measures the fluorescence of a dye, which depends on the folding state of the protein. The difference between the melting temperature (ΔTm) in the absence and presence of the compound represents the binding strength to the protein.
(§2) Measurements were performed in duplicates.

[2] = target: T2, CDK2 (Homo sapiens, UniProt P24941); assay: DSF; type: binding; settings: 10 μM compound
T2 construct: purchased in-house DSF panel (SGC Frankfurt)
From the text: as §1, §2

[3] = tested on: in-house panel of 89–105 kinases; assay: DSF selectivity screen; type: binding; settings: number of kinases of the DSF panel
From the text: To investigate the selectivity profile of the different series, a differential scanning fluorimetry (DSF) assay was used. This assay offers a rapid and sensitive screening method that determines the denaturation temperature of a protein in absence and presence of a compound. This assay format measures the fluorescence of a dye, which depends on the folding state of the protein. The difference between the melting temperature (ΔTm) in the absence and presence of the compound represents the binding strength to the protein. We used an in-house panel of 89–105 kinases to screen all synthesized inhibitors (Tables S1–S3).
as §2

[4] = target: T3, CDK16/Cyclin Y (Homo sapiens, UniProt Q00536); assay: NanoBRET; type: cell-based; settings: Figure 7, 11-point dose-response in duplicates; read-out: NanoBRET EC50 ± SEM against CDK16
T3 construct: Full-length kinases were obtained as plasmids cloned in frame with a terminal NanoLuc-fusion; CS1810C178 (CCNY); host or cells: HEK293T
Experimental: Next, to specifically quantify the outcome of the cellular activity of the compounds, a NanoBRET cellular target engagement assay was performed. The determination of the cellular potency on CDK16 correlated well with the corresponding DSF assay data (Figure S2). […] As mentioned before, the exchange from a methyl ester to an iso-propyl or tert-butyl ester led to a higher stabilization of the kinase in the DSF assay, which correlated with an increase in cellular potency as determined in the NanoBRET assay. […] The number of potential off-targets was low with 1 and 2 kinases with ΔTm >5 °C (Figure 4), highlighting these inhibitors for more comprehensive selectivity studied within the CDK and particular the TAIRE subfamily.
The assay was performed as described previously. In brief: Full-length kinases were obtained as plasmids cloned in frame with a terminal NanoLuc-fusion (Promega, Madison, WI, USA), as specified in table (Table S6). Plasmids were transfected into HEK293T cells using FuGENE HD (Promega, E2312) and proteins were allowed to express for 20h. Serially diluted inhibitor and NanoBRET Kinase Tracer (Promega) at a concentration determined previously as the KD,app (Table S5) were pipetted into white 384-well plates (Greiner 781207) using an Echo acoustic dispenser (Labcyte, San Jose, CA, USA). The corresponding protein-transfected cells were added and reseeded at a density of 2.5 × 10^5 cells/mL after trypsinization and resuspending in Opti-MEM without phenol red (Life Technologies, Carlsbad, CA, USA). The system was allowed to equilibrate for 2 h at 37 °C/5% CO2 prior to BRET measurements. To measure BRET, NanoBRET NanoGlo Substrate + Extracellular NanoLuc Inhibitor (Promega, N2540) was added as per the manufacturer’s protocol, and filtered luminescence was measured on a PHERAstar plate reader (BMG Labtech, Ortenberg, Germany) equipped with a luminescence filter pair (450 nm BP filter (donor) and 610 nm LP filter (acceptor)). Competitive displacement data were then graphed using GraphPad Prism 9 software using a normalized 3-parameter curve fit with the following equation: Y = 100/(1 + 10^(X–LogEC50)).

[5] = target: GSK3B (Homo sapiens, UniProt P49841); assay: DSF; type: binding; design: purchased in-house DSF panel (SGC Frankfurt); settings: 10 μM compound
From the text: as §1, §2

[6] = tested on: HCT116-FUCCI cells; assay: FUCCI cell cycle assay and viability assessment; type: cell-based; settings: 1, 5, 10 µM (milciclib 1, 10 µM), 24 h
Experimental: This technology enables the detection of cell cycle states (G1, G2/M, or S phase) on a single cell level. Additionally, a viability assessment, as described by Tjaden et. al., was performed using Hoechst33342 as a nuclear marker. […] At 10 µM of the same compound, the pyknosed nuclei rate was even higher, on average 45% (Figure 9C). An increase in cells including a pyknosed nucleus indicate apoptotic cell death, due to typical morphological changes like DNA condensation. […] Milciclib is a published CDK2 inhibitor and was used as a reference compound [55]. […] At later time points, the G2/M phase arrest was no longer detectable (Table S7). This can be explained due to the increasing amount of apoptotic cells.
To validate the influence of the compounds on the cell cycle, a florescent ubiquitination-based cell cycle indicator (FUCCI) assay was performed as described previously. In Brief, HCT116-FUCCI cells, stably expressing the FUCCI system, introduced by the Sleeping Beauty transposon system, were seeded at a density of 1250 cells per well in a 384 well plate (Cell culture microplate, PS, f-bottom, µClear®, 781091, Greiner, Frickenhausen, Germany) in culture medium (50 µL per well) and stained additionally with 60 nM Hoechst33342 (Thermo Scientific). Fluorescence and cellular shape were measured before and after compound treatment for 72 h every 12 h using the CQ1 high-content confocal microscope (Yokogawa, Tokyo, Japan). Compounds were added directly to the cells at three different concentrations (1 µM, 5 µM and 10 µM). The following parameters were used for image acquisition: Ex 405 nm/Em 447/60 nm, 500ms, 50%; Ex 561 nm/Em 617/73 nm, 100 ms, 40%; Ex 488/Em 525/50 nm, 50 ms, 40%; Ex 640 nm/Em 685/40, 50 ms, 20 %; bright field, 300ms, 100% transmission, one centered field per well, 7 z stacks per well with 55 µm spacing. Analysis of images was performed using the CellPathfinder software (Yokogawa). The cell count was normalized against the cell count of cells treated with 0.1% DMSO. All normal gated cells were further classified in cells containing healthy, fragmented or pyknosed nuclei. […] Error bars show SEM of biological duplicates. All data can be found in Table S7.

T3 sequence (Q00536 whole entry, the tested form may be a part): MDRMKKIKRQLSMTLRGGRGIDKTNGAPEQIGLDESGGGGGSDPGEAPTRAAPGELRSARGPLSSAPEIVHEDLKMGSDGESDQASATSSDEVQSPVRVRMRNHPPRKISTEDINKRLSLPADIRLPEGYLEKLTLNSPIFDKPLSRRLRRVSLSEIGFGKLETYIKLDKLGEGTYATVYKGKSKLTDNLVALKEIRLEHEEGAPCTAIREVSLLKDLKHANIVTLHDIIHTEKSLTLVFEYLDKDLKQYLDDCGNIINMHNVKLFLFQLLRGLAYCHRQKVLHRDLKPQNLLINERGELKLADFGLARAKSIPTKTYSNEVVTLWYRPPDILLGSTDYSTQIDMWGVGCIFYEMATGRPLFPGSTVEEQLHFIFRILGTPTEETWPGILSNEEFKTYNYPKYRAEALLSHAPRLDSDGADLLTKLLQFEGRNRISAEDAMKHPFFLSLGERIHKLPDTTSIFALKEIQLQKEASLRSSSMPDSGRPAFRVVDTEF
T3 sequence (Q8ND76 2-341 partner limits assumed): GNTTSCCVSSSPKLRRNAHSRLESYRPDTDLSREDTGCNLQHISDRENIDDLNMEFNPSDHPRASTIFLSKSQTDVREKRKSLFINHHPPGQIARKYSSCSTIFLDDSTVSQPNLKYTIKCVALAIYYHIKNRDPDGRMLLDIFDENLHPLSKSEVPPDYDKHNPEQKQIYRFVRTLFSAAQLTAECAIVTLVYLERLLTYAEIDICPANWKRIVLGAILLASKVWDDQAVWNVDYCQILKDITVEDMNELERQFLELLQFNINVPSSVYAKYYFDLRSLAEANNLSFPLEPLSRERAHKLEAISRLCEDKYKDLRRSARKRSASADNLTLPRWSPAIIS
T1 sequence (Q00536 163-478): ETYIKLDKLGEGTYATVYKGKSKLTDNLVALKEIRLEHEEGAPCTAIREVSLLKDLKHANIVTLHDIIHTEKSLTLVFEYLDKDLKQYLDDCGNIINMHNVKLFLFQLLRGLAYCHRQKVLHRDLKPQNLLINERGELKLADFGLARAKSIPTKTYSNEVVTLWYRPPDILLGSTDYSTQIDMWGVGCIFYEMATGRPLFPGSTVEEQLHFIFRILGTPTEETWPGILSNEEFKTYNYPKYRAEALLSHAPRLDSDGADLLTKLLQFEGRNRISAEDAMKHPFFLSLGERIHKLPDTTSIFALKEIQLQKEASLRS
GSK3B, sequence (P49841 35-386): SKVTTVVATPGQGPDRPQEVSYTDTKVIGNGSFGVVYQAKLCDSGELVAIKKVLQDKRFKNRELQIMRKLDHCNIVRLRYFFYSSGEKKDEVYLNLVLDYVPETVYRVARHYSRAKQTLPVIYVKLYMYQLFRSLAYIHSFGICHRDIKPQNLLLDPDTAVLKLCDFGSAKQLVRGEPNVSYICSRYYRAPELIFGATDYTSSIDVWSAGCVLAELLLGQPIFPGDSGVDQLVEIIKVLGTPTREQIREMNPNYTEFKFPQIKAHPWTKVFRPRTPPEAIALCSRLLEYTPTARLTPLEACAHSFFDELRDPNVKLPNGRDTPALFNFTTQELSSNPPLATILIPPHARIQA

SMILES	ΔTm at 10 µM [1] [°C]	ΔTm at 10 µM [2] [°C]	Kinases with shifts > 5°C [3]	EC50 [4] [nM]	ΔTm at 10 µM [5] [°C]	effect on the cell cycle (FUCCI) [6]
CC(C)OC(=O)c1cc(Nc2ccnc(NCCCCCNC(=O)OC(C)(C)C)n2)n[nH]1 [42b, isopropyl 3-((2-((5-((tert-butoxycarbonyl)amino)pentyl)amino)pyrimidin-4-yl)amino)-1H-pyrazole-5-carboxylate]	9.1 ± 0.1	6.5	7–10	54 ± 1.8	7.8 ± 0.3	
CNC(=O)c1nn(C)c2c1C(C)(C)Cc1cnc(Nc3ccc(N4CCN(C)CC4)cc3)nc1-2 [Milciclib, reference compound]						G1 cell cycle arrest
CC(C)(C)OC(=O)NCCOCCNc1nccc(Nc2cc(C3CC3)n[nH]2)n1 [11d, tert-butyl (2-(2-((4-((3-cyclopropyl-1H-pyrazol-5-yl)amino)pyrimidin-2-yl)amino)ethoxy)-ethyl)carbamate]	7.3 ± 0.1	6.3 ± 0.2		67 ± 1.3	5.9 ± 0.2	
CC(C)(C)c1cc(Nc2ccnc(Nc3ccc(CC#N)cc3)n2)[nH]n1 [40c, 2-(4-((4-((3-(tert-butyl)-1H-pyrazol-5-yl)amino)pyrimidin-2-yl)amino)phenyl)acetonitrile]	5.7 ± 0.1	10.7 ± 0.1		351 ± 34.1	10.4	
CC(C)(C)OC(=O)NCCCCCCNc1nccc(Nc2cc(C3CC3)n[nH]2)n1 [11e, tert-butyl (6-((4-((3-cyclopropyl-1H-pyrazol-5-yl)amino)pyrimidin-2-yl)amino)hexyl)-carbamate]	8.9 ± 0.3	11.2 ± 0.3		36 ± 1.2	6.8	
COC(=O)c1cc(Nc2nc(Nc3cccc(CCNC(=O)OC(C)(C)C)c3)ncc2Cl)[nH]n1 [22b, methyl 5-((2-((3-(2-((tert-butoxycarbonyl)amino)ethyl)phenyl)amino)-5-chloropyrimidin-4-yl)amino)-1H-pyrazole-3-carboxylate]	0.8 ± 0.1	2.1 ± 0.1		3190 ± 589	3.9 ± 0.6	
Cc1cnc(Nc2cccc(CCNC(=O)OC(C)(C)C)c2)nc1Nc1cc(C2CC2)n[nH]1 [12b, tert-butyl 3-((4-((3-cyclopropyl-1H-pyrazol-5-yl)amino)-5-methylpyrimidin-2-yl)amino)-phenethylcarbamate]	3.7 ± 0.1	4.7		1100 ± 44.5	5.1	
COC(=O)c1cc(Nc2nc(Nc3ccc(CCNC(=O)OC(C)(C)C)cc3)ncc2Cl)[nH]n1 [22a, methyl 5-((2-((4-(2-((tert-butoxycarbonyl)amino)ethyl)phenyl)amino)-5-chloropyrimidin-4-yl)amino)-1H-pyrazole-3-carboxylate]	0.3 ± 0.1	2 ± 0.3		1860 ± 276	3.3 ± 0.5	
COC(=O)c1cc(Nc2nc(Nc3cccc(CCNC(=O)OC(C)(C)C)c3)nc3ccccc23)[nH]n1 [23b, methyl 5-((2-((3-(2-((tert-butoxycarbonyl)amino)ethyl)phenyl)amino)quinazolin-4-yl)amino)-1H-pyrazole-3-carboxylate]	0.2 ± 0.2	0.6		6820 ± 280	1.4 ± 0.3	
CC(C)(C)OC(=O)NCCc1ccc(Nc2nccc(Nc3cc(C4CC4)n[nH]3)n2)cc1 [11a, tert-butyl 4-((4-((3-cyclopropyl-1H-pyrazol-5-yl)amino)pyrimidin-2-yl)amino)phenethyl-carbamate]	8.7	12.3		35	8.2 ± 0.1	
COC(=O)c1cc(Nc2nc(NCCCCCCNC(=O)OC(C)(C)C)ncc2Cl)[nH]n1 [22e, methyl 5-((2-((6-((tert-butoxycarbonyl)amino)hexyl)amino)-5-chloropyrimidin-4-yl)amino)-1H-pyrazole-3-carboxylate]	0.2 ± 0.3	0.7		12090 ± 65	2.9 ± 0.1	
COC(=O)c1cc(Nc2ccnc(NCc3ccc(CNC(=O)OC(C)(C)C)cc3)n2)[nH]n1 [21g, methyl 5-((2-((4-(((tert-butoxycarbonyl)amino)methyl)benzyl)amino)pyrimidin-4-yl)amino)-1H-pyrazole-3-carboxylate]	5.3 ± 0.1	3.3 ± 0.1		879 ± 5.5	7.7 ± 0.1	
COC(=O)c1cc(Nc2nc(NCCCCCNC(=O)OC(C)(C)C)ncc2Cl)[nH]n1 [22c, methyl 5-((2-((5-((tert-butoxycarbonyl)amino)pentyl)amino)-5-chloropyrimidin-4-yl)amino)-1H-pyrazole-3-carboxylate]	1 ± 0.1	1.5 ± 0.1		8320 ± 227	4.8 ± 0.2	
CNC(=O)c1cc(Nc2ccnc(NCCCCCNC(=O)OC(C)(C)C)n2)[nH]n1 [41b, tert-butyl (5-((4-((3-(methylcarbamoyl)-1H-pyrazol-5-yl)amino)pyrimidin-2-yl)amino)-pentyl)carbamate]	1.5 ± 0.1	1.2 ± 0.2		2470 ± 248	1.3 ± 0.1	
CC(C)(C)OC(=O)NCCCCCNc1ncc(Cl)c(Nc2cc(C3CC3)n[nH]2)n1 [13c, tert-butyl (5-((5-chloro-4-((3-cyclopropyl-1H-pyrazol-5-yl)amino)pyrimidin-2-yl)amino)pentyl)carbamate]	3.2	5.1 ± 0.3		914 ± 11	5.9 ± 0.3	
Cc1cnc(Nc2ccc(CCNC(=O)OC(C)(C)C)cc2)nc1Nc1cc(C2CC2)n[nH]1 [12a, tert-butyl 4-((4-((3-cyclopropyl-1H-pyrazol-5-yl)amino)-5-methylpyrimidin-2-yl)amino)-phenethylcarbamate]	6.2 ± 0.1	8.7 ± 0.1		172 ± 20.9	5.7 ± 0.2	
CC(C)c1cc(Nc2ccnc(NCCCCCNC(=O)OC(C)(C)C)n2)[nH]n1 [39b, tert-butyl (5-((4-((3-isopropyl-1H-pyrazol-5-yl)amino)pyrimidin-2-yl)amino)pentyl)-carbamate]	8.6 ± 0.1	9.5 ± 0.1		47 ± 4.1	6.2 ± 0.1	
